Patent publication US20220257774A1, “AROMATIC AMINE AR AHD BET TARGETING PROTEIN DEGRADATION CHIMERA COMPOUND AND USE” (HINOVA PHARMACEUTICALS INC., priority 2019, published 2022)
Where two headings read alike, the source gives them in different places.

Legend:
LNCaP/AR cells = test: Inhibition of the proliferation of LNCap/AR cells (CCK-8); assay type: cell-based; conditions: 144 h, read-out: LNCap/AR IC50
Method in brief: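 Proliferation was read by CCK-8 (OD 450 nm, 1 h) after six days of compound exposure. Cells were seeded at 1000 per well overnight, then dosed in duplicate over nine 3-fold steps with a top final concentration of 10 μM in 0.1% DMSO; IC50 was fitted from inhibition curves.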

22RV1 cells = test: Inhibition of the proliferation of drug-resistant prostate cancer cell 22RV1 (CCK-8); assay type: cell-based; conditions: Homo sapiens; 22RV1 cells (enzalutamide-resistant), same method
Description: (1) Experimental materials and instruments: LNCaP/AR cell line and 22RV1 cell line (provided by Sichuan Kangcheng Biotechnology Co., Ltd.) Fetal bovine serum FBS (Gibco, Cat. No. 10099-141) 0.01M PBS (Biosharp, Cat. No. 162262) RIPM1640 medium (Hyclone, Cat. No. 308090.01) Penicillin-Streptomycin (Hyclone, Cat. No. SV30010) Cell counting kit-8 (Signalway Antibody, Cat. No. CP002) DMSO (Sigma, Cat. No. D5879) Centrifuge Tube, 15 ml (Excell Bio, Cat. No. CS015-0001) Cell Culture Dish, (Excell Bio, Cat. No. CS016-0128) 96-well cell culture plate (Corning, Cat. No. 3599) Microplate reader (Thermo Multiskan MK3 type)
a. Preparation of Buffer Cell culture medium: RIPM1640 medium, 10% FBS, 1% Pen Strep: PBS buffer: PBS powder was dissolved in 2 L of ultrapure water and sterilized. b. Experimental Procedures 1) LNCaP/AR cells were subcultured in cell culture media, and then the cells in good growth condition were seeded in a 96-well plate at 80 μL/well (1000 cells/well), and cultured overnight in a 37° C., 5% CO2 cell incubator. 2) The drug was prepared into a 10 mM stock solution with dimethyl sulfoxide (DMSO). Prior to use, the stock solution was diluted in a ratio of […] with DMSO, and then diluted at a 3-fold gradient to obtain 9 serial concentrations. Then, each concentration of compound was further diluted in a ratio of 1:200 with the culture medium (to ensure that the DMSO concentration in the culture system was 0.1%), and two wells were set for each concentration. 20 μL of the diluted compound solution was added to the well of the cell culture (with a final concentration of 10 μM, 3.3 μM, 1.1 μM . . . ), and then the plate was gently tapped to thoroughly mix. In addition, the experiment included 3 negative control wells only containing cells and 3 blank control wells only containing culture medium (6 wells were each added with DMSO diluted in a ratio of 1:200 with 20 μL of culture medium). c. Result Detection: 1) After culturing for 6 days, 10 μL of CCK-8 was added to each well, and the plate was further incubated for 1 h in a 37° C., 5% CO2 cell incubator. 2) The absorbance (OD value) was measured at 450 nm with a multifunctional microplate reader. 3) The data was analyzed by the Dose-response-inhibition equation in the software GraphPad Prism5, and the IC50 value was obtained. 2. Biological assay of the inhibition on the proliferation of other drug-resistant prostate cancer cells
The same test method was used to determine the inhibitory activity of the compound according to the present invention against drug-resistant prostate cancer cell 22RV1.

[1] = LNCaP/AR cells, 6 days culture, CCK-8

| IC50 (LNCaP/AR cells; [1]) | IC50 (22RV1 cells) | Structure (SMILES) | IC50 (LNCaP/AR cells; LNCaP/AR) |
| --- | --- | --- | --- |
| 0.101 to 0.5 µM | < 0.1 µM | Cc1ccc(-c2c(C)noc2C)cc1N(CCCC1CCN(c2ccc3c(c2)C(=O)N(C2CCC(=O)NC2=O)C3)CC1)c1ccc(C2(C#N)CC2)cc1 (centres unmarked) [Compound 31, 1-(4-((5-(3,5-Dimethylisoxazol-4-yl)-2-methylphenyl)(3-(1-(2-(2,6-dioxopiperidin-3-yl)-3-oxoisoindolin-5-yl)piperidin-4-yl)propyl)amino)phenyl)cyclopropane-1-nitrile] |  |
| 0.101 to 0.5 µM | < 0.1 µM | Cc1ccc(-c2c(C)noc2C)cc1N(CCCC1CCN(c2ccc3c(c2)CN(C2CCC(=O)NC2=O)C3=O)CC1)c1ccc(C2(C#N)CC2)cc1 (centres unmarked) [Compound 32, 1-(4-((5-(3,5-Dimethylisoxazol-4-yl)-2-methylphenyl)(3-(1-(2-(2,6-dioxopiperidin-3-yl)-1-oxoisoindolin-5-yl)piperidin-4-yl)propyl)amino)phenyl)cyclopropane-1-nitrile] |  |
| > 2 µM | > 2 µM | Cc1ccc(-c2c(C)noc2C)cc1N(c1ccc(C2(C#N)CC2)cc1)C1CN(CC2CCN(c3ccc4c(c3)C(=O)N(C3CCC(=O)NC3=O)C4=O)CC2)C1 (centres unmarked) [Compound 34, 1-(4-((5-(3,5-Dimethylisoxazol-4-yl)-2-methylphenyl) (1-((1-(2-(2,6-dioxopiperidin-3-yl)-1,3-dioxoisoindolin-5-yl)piperidin-4-yl)methyl)azetidin-3-yl)amino)phenyl)cyclopropane-1-nitrile] |  |
| < 0.1 µM | < 0.1 µM | Cc1ccc(-c2c(C)noc2C)cc1N(CCCCCCNc1ccc2c(c1)CN(C1CCC(=O)NC1=O)C2=O)c1ccc(C2(C#N)CC2)cc1 (centres unmarked) [Compound 61, 1-(4-((5-(3,5-dimethylisoxazol-4-yl)-2-methylphenyl)(6-((2-(2,6-dioxopiperidin-3-yl)-1-oxoisoindolin-5-yl)amino)hexyl)amino)phenyl)cyclopropane-1-nitrile] |  |
| 0.501 to 2 µM | 0.101 to 0.5 µM | Cc1ccc(-c2c(C)noc2C)cc1N(CCN1CCN(c2ccc3c(c2)CN(C2CCC(=O)NC2=O)C3=O)CC1)c1ccc(C2(C#N)CC2)cc1 (centres unmarked) [Compound 65, 1-(4-((5-(3,5-dimethylisoxazol-4-yl)-2-methylphenyl)(2-(4-(2-(2,6-dioxopiperidin-3-yl)-1-oxoisoindolin-5-yl)piperazin-1-yl)ethyl)amino)phenyl)cyclopropane-1-nitrile] |  |
| 0.101 to 0.5 µM | < 0.1 µM | Cc1ccc(-c2c(C)noc2C)cc1N(c1ccc(C2(C#N)CC2)cc1)C1CN(C2CCN(c3ccc4c(c3)C(=O)N(C3CCC(=O)NC3=O)C4=O)CC2)C1 (centres unmarked) [Compound 66] |  |
| 0.501 to 2 µM |  | Cc1ccc(-c2c(C)noc2C)cc1N(C[C@H]1CC[C@H](CNc2cc3c(cc2F)C(=O)N(C2CCC(=O)NC2=O)C3=O)CC1)c1ccc(C2(C#N)CC2)cc1 (some centres unmarked) [Compound 150] |  |

The next lines start with the molecule.

| Structure (SMILES) | IC50 (LNCaP/AR cells; [1]) | IC50 (22RV1 cells) | IC50 (LNCaP/AR cells; LNCaP/AR) |
| --- | --- | --- | --- |
| Cc1ccc(-c2c(C)noc2C)cc1N(c1ccc(C2(C#N)CC2)cc1)C1CN(c2ccc3c(c2)C(=O)N(C2CCC(=O)NC2=O)C3=O)C1 (centres unmarked) [Compound 35, 1-(4-((5-(3,5-Dimethylisoxazol-4-yl)-2-methylphenyl)(1-(2-(2,6-dioxopiperidin-3-yl)-1,3-dioxoisoindolin-5-yl)azetidin-3-yl)amino)phenyl)cyclopropane-1-nitrile] | > 2 µM | > 2 µM |  |
| Cc1ccc(-c2c(C)noc2C)cc1N(CC1CC(Nc2cc3c(cc2F)CN(C2CCC(=O)NC2=O)C3=O)C1)c1ccc(C2(C#N)CC2)cc1 (centres unmarked) [Compound 38] | > 2 µM | 0.501 to 2 µM |  |
| Cc1ccc(-c2c(C)noc2C)cc1N(CCCCNc1cc2c(cc1F)C(=O)N(C1CCC(=O)NC1=O)C2=O)c1ccc(C2(C#N)CC2)cc1 (centres unmarked) [Compound 40] | 0.501 to 2 µM | 0.101 to 0.5 µM |  |
| Cc1ccc(-c2c(C)noc2C)cc1N(CCCCNc1ccc2c(c1)C(=O)N(C1CCC(=O)NC1=O)C2=O)c1ccc(C2(C#N)CC2)cc1 (centres unmarked) [Compound 41, 1-(4-((5-(3,5-Dimethylisoxazol-4-yl)-2-methylphenyl)(4-((2-(2,6-dioxopiperidin-3-yl)-1,3-dioxoisoindolin-5-yl)amino)butyl)amino)phenyl)cyclopropane-1-nitrile] | 0.101 to 0.5 µM | < 0.1 µM |  |
| Cc1ccc(-c2c(C)noc2C)cc1N(CCCCNc1cc2c(cc1F)CN(C1CCC(=O)NC1=O)C2=O)c1ccc(C2(C#N)CC2)cc1 (centres unmarked) [Compound 42, 1-(4-((5-(3,5-Dimethylisoxazol-4-yl)-2-methylphenyl)(4-((2-(2,6-dioxopiperidin-3-yl)-6-fluoro-3-oxoisoindolin-5-yl)amino)butyl)amino)phenyl)cyclopropane-1-nitrile] | 0.101 to 0.5 µM | 0.501 to 2 µM |  |
| Cc1ccc(-c2c(C)n[nH]c2C)cc1N(CCCCCOCC(=O)N[C@H](C(=O)N1C[C@H](O)C[C@H]1C(=O)N[C@@H](C)c1ccc(-c2scnc2C)cc1)C(C)(C)C)c1ccc(C#N)c(Cl)c1 [Compound 44, (2S,4R)-1-((S)-2-(2-((5-((3-chloro-4-cyanophenyl)(5-(3,5-dimethyl-1H-pyrazol-4-yl)-2-methylphenyl)amino)pentyl)oxy)acetylamino)-3,3-dimethylbutyryl)-4-hydroxy-N—((S)-1-(4-(4-methylthiazol-5-yl)phenyl)ethyl)pyrrolidinyl-2-formamide] |  | > 2 µM | 0.101 to 0.5 µM |
| CC(=O)O[C@@H]1C[C@@H](C(=O)N[C@@H](C)c2ccc(-c3scnc3C)cc2)N(C(=O)[C@@H](NC(=O)COCCCCCN(c2ccc(C#N)c(Cl)c2)c2cc(-c3c(C)n[nH]c3C)ccc2C)C(C)(C)C)C1 [Compound 45] |  | > 2 µM | 0.501 to 2 µM |
| Cc1ccc(-c2c(C)noc2C)cc1N(CCCCNc1ccc2c(c1)CN(C1CCC(=O)NC1=O)C2=O)c1ccc(C2(C#N)CC2)cc1 (centres unmarked) [Compound 62, 1-(4-((5-(3,5-dimethylisoxazol-4-yl)-2-methylphenyl)(4-((2-(2,6-dioxopiperidin-3-yl)-1-oxoisoindolin-5-yl)amino)butyl)amino)phenyl)cyclopropane-1-nitrile] | < 0.1 µM | < 0.1 µM |  |
| Cc1ccc(-c2c(C)noc2C)cc1N(CCN1CCN(c2ccc3c(c2)C(=O)N(C2CCC(=O)NC2=O)C3=O)CC1)c1ccc(C2(C#N)CC2)cc1 (centres unmarked) [Compound 64, 1-(4-((5-(3,5-Dimethylisoxazol-4-yl)-2-methylphenyl)(2-(4-(2-(2,6-dioxopiperidin-3-yl)-1,3-dioxoisoindolin-5-yl)piperazin-1-yl)ethyl)amino)phenyl)cyclopropane-1-nitrile] | 0.501 to 2 µM | < 0.1 µM |  |
| Cc1ccc(-c2c(C)noc2C)cc1N(c1ccc(C2(C#N)CC2)cc1)C1CN(CC2CN(c3ccc4c(c3)C(=O)N(C3CCC(=O)NC3=O)C4=O)C2)C1 (centres unmarked) [Compound 67, 1-(4-((5-(3,5-dimethylisoxazol-4-yl)-2-methylphenyl)(1-((1-(2-(2,6-dioxopiperidin-3-yl)-1,3-dioxoisoindolin-5-yl)azetidin-3-yl)methyl)azetidine-3-yl)amino)phenyl)cyclopropane-1-carbonitrile] | 0.101 to 0.5 µM | < 0.1 µM |  |
| Cc1ccc(-c2c(C)noc2C)cc1N(CCCCCNc1cc2c(cc1F)C(=O)N(C1CCC(=O)NC1=O)C2=O)c1ccc(C2(C#N)CC2)cc1 (centres unmarked) [Compound 148, 1-(4-((5-(3,5-Dimethylisoxazol-4-yl)-2-methylphenyl)(5-((2-(2,6-dioxopiperidin-3)-6-fluoro-1,3-dicarbonylisoindolin-5))amino)pentyl)amino)phenylcyclopropanecarbonitrile] | 0.501 to 2 µM |  |  |
| Cc1ccc(-c2c(C)noc2C)cc1N(CCCCCNc1ccc2c(c1)C(=O)N(C1CCC(=O)N(C)C1=O)C2=O)c1ccc(C2(C#N)CC2)cc1 (centres unmarked) [Compound 151, 1-(4-((5-(3,5-Dimethylisoxazol-4-yl)-2-methylphenyl)(5-((2-(1-methyl-2,6-dioxopiperidin-3)-1,3-dicarbonylisoindolin-5-yl))amino)pentyl)amino)phenylcyclopropanecarbonitrile] | > 2 µM |  |  |
